Measured values as given in ChEMBL document CHEMBL5120779, “Thiazolidinedione-Based Structure Modification of Celastrol Provides Thiazolidinedione-Conjugated Derivatives as Potent Agents against Non-Small-Cell Lung Cancer Cells through a Mitochondria-Mediated Apoptotic Pathway” (J Nat Prod, 2022).
Activity calls are given as the source filed them. The calls are words filed in the database; no cut-off is given here.

How the values were obtained:
[1] = test system: A549; assay: Induction of mitochondrial membrane potential depolarization in human A549 cells assessed as proportion of cells with intact mitochondria by measuring red fluorescent J-aggregates at 0.25 uM incubated for 48 hrs by JC-1 staining based flow cytometry (reference value: 63.9%); assay type: functional
[2] = test system: A549; assay: Induction of mitochondrial membrane potential depolarization in human A549 cells assessed as proportion of cells with intact mitochondria by measuring red fluorescent J-aggregates at 0.125 uM incubated for 48 hrs by JC-1 staining based flow cytometry (reference value: 63.9%); assay type: functional
[3] = test system: A549; assay: Induction of mitochondrial membrane potential depolarization in human A549 cells assessed as proportion of cells with depolarized mitochondria by measuring green fluorescent J-monomers at 0.5 uM incubated for 48 hrs by JC-1 staining based flow cytometry (reference value: 34.2%); assay type: functional
[4] = test system: A549; assay: Induction of mitochondrial membrane potential depolarization in human A549 cells assessed as proportion of cells with depolarized mitochondria by measuring green fluorescent J-monomers at 0.25 uM incubated for 48 hrs by JC-1 staining based flow cytometry (reference value: 34.2%); assay type: functional
[5] = test system: A549; assay: Induction of mitochondrial membrane potential depolarization in human A549 cells assessed as proportion of cells with depolarized mitochondria by measuring green fluorescent J-monomers at 0.125 uM incubated for 48 hrs by JC-1 staining based flow cytometry (reference value: 34.2%); assay type: functional
[6] = test system: A549; assay: Induction of apoptosis in human A549 cells assessed as necrotic cells at 0.5 uM incubated for 48 hrs by Annexin V-FITC/propidium iodide staining based flow cytometry (reference value: 3.36%); assay type: functional
[7] = test system: A549; assay: Induction of apoptosis in human A549 cells assessed as late apoptotic cells at 0.5 uM incubated for 48 hrs by Annexin V-FITC/propidium iodide staining based flow cytometry (reference value: 0.82%); assay type: functional
[8] = test system: A549; assay: Induction of apoptosis in human A549 cells assessed as early apoptotic cells at 0.5 uM incubated for 48 hrs by Annexin V-FITC/propidium iodide staining based flow cytometry (reference value: 0.11%); assay type: functional
[9] = Cytotoxicity against human MRC5 cells assessed as inhibition of cell growth measured after 96 hrs by MTT assay; assay type: toxicity, cell-based
[10] = Selectivity index, ratio of IC50 for human MRC5 cells to IC50 for human A549 cells; assay type: toxicity; conditions: MRC5 cells and A549 cells, read-out: Ratio IC50
[11] = test system: A549; assay: Potency index, ratio of celastrol IC50 to test compound IC50 for cytotoxicity against human A549 cells by MTT assay; assay type: functional
[12] = Stability of the compound in DMEM culture medium at 100 ug/ml measured after 72 hrs by HPLC analysis; assay type: physicochemical; conditions: at 100 µg/mL
[13] = test system: A549; assay: Cytotoxicity against human A549 cells assessed as inhibition of cell proliferation at 0.125 to 2 uM by MTT assay; assay type: functional, cell-based; conditions: dose 0.125-2 µM, time 24-72 hrs, TDE = time-dependent effect
[14] = test system: A549; assay: Cytotoxicity against human A549 cells assessed as inhibition of cell proliferation measured after 24 to 72 hrs by MTT assay; assay type: functional, cell-based; conditions: dose 0.125-2 µM, time 24-72 hrs, DDE = dose-dependent effect
[15] = test system: A549; assay: Cytotoxicity against human A549 cells assessed as inhibition of cell proliferation at 0.1 uM pretreated for 2 hrs with necroptosis inhibitor, necrostatin-1 followed by incubation with compound and measured after 48 hrs by MTT assay; assay type: functional, cell-based
[16] = test system: A549; assay: Cytotoxicity against human A549 cells assessed as inhibition of cell proliferation at 0.1 uM pretreated for 2 hrs with autophagy inhibitor, 3-methyladenine followed by incubation with compound and measured after 48 hrs by MTT assay; assay type: functional, cell-based
[17] = test system: A549; assay: Induction of apoptosis in human A549 cells assessed as nuclear fragmentation and chromatin condensation incubated for 48 hrs by Hoechst 33342 staining based fluorescence microscopic analysis; assay type: functional, cell-based; conditions: dose 0.25-0.5 µM, DDE = dose-dependent effect
[18] = test system: A549; assay: Induction of apoptosis in human A549 cells assessed as viable cells at 0.125 uM incubated for 48 hrs by Annexin V-FITC/propidium iodide staining based flow cytometry (reference value: 95.7%); assay type: functional; conditions: read-out: Activity
[19] = test system: A549; assay: Induction of apoptosis in human A549 cells assessed as early apoptotic cells at 0.125 uM incubated for 48 hrs by Annexin V-FITC/propidium iodide staining based flow cytometry (reference value: 0.11%); assay type: functional
[20] = test system: A549; assay: Induction of apoptosis in human A549 cells assessed as late apoptotic cells at 0.125 uM incubated for 48 hrs by Annexin V-FITC/propidium iodide staining based flow cytometry (reference value: 0.82%); assay type: functional
[21] = test system: A549; assay: Induction of apoptosis in human A549 cells assessed as necrotic cells at 0.125 uM incubated for 48 hrs by Annexin V-FITC/propidium iodide staining based flow cytometry (reference value: 3.36%); assay type: functional
[22] = test system: A549; assay: Induction of apoptosis in human A549 cells assessed as viable cells at 0.25 uM incubated for 48 hrs by Annexin V-FITC/propidium iodide staining based flow cytometry (reference value: 95.7%); assay type: functional; conditions: read-out: Activity
[23] = test system: A549; assay: Induction of apoptosis in human A549 cells assessed as early apoptotic cells at 0.25 uM incubated for 48 hrs by Annexin V-FITC/propidium iodide staining based flow cytometry (reference value: 0.11%); assay type: functional
[24] = test system: A549; assay: Induction of apoptosis in human A549 cells assessed as late apoptotic cells at 0.25 uM incubated for 48 hrs by Annexin V-FITC/propidium iodide staining based flow cytometry (reference value: 0.82%); assay type: functional
[25] = test system: A549; assay: Induction of apoptosis in human A549 cells assessed as necrotic cells at 0.25 uM incubated for 48 hrs by Annexin V-FITC/propidium iodide staining based flow cytometry (reference value: 3.36%); assay type: functional
[26] = test system: A549; assay: Induction of apoptosis in human A549 cells assessed as viable cells at 0.5 uM incubated for 48 hrs by Annexin V-FITC/propidium iodide staining based flow cytometry (reference value: 95.7%); assay type: functional; conditions: read-out: Activity
[27] = test system: A549; assay: Induction of mitochondrial membrane potential depolarization in human A549 cells assessed as proportion of cells with intact mitochondria by measuring red fluorescent J-aggregates at 0.5 uM incubated for 48 hrs by JC-1 staining based flow cytometry (reference value: 63.9%); assay type: functional
[28] = test system: A549; assay: Induction of apoptosis in human A549 cells assessed as increase in Bax protein expression at 0.25 to 4 uM incubated for 48 hrs by western blot analysis; assay type: functional, cell-based; conditions: dose 0.25-4 µM
[29] = test system: A549; assay: Induction of apoptosis in human A549 cells assessed as decrease in Bcl-2 protein expression at 0.25 to 4 uM incubated for 48 hrs by western blot analysis; assay type: functional, cell-based; conditions: dose 0.25-4 µM
[30] = test system: A549; assay: Induction of apoptosis in human A549 cells assessed as increase in cleaved caspase-9 expression incubated for 48 hrs by western blot analysis; assay type: functional, cell-based; conditions: dose 0.25-4 µM, DDE = dose-dependent effect
[31] = test system: A549; assay: Induction of apoptosis in human A549 cells assessed as increase in cleaved caspase-3 expression incubated for 48 hrs by western blot analysis; assay type: functional, cell-based; conditions: dose 0.25-4 µM, DDE = dose-dependent effect
[32] = test system: A549; assay: Induction of apoptosis in human A549 cells assessed as increase in cleaved PARP expression incubated for 48 hrs by western blot analysis; assay type: functional, cell-based; conditions: dose 0.25-4 µM, DDE = dose-dependent effect
[33] = test system: A549; assay: Induction of apoptosis in human A549 cells assessed as increase in cleaved caspase-8 expression at 0.25 to 4 uM incubated for 48 hrs by western blot analysis; assay type: functional, cell-based; conditions: dose 0.25-4 µM
[34] = test system: A549; assay: Anti-tumor activity against human A549 cells xenografted in iv dosed BALB/c mouse assessed as reduction in tumor growth administered every 2 days for 13 days; assay type: functional, organism-based; conditions: dose 2-8 mg/kg, time 13.0 day, DDE = dose-dependent effect
[35] = test system: A549; assay: Anti-tumor activity against human A549 cells xenografted in BALB/c mouse assessed as reduction in tumor volume at 2 to 8 mg/kg, iv administered every 2 days for 13 days; assay type: functional, organism-based; conditions: dose 2-8 mg/kg, time 13.0 day
[36] = test system: A549; assay: Anti-tumor activity against human A549 cells xenografted in BALB/c mouse assessed as reduction in tumor weight at 2 mg/kg, iv administered every 2 days for 13 days; assay type: functional; conditions: A549, 312 h, time 13 day
[37] = test system: A549; assay: Anti-tumor activity against human A549 cells xenografted in BALB/c mouse assessed as reduction in tumor weight at 4 mg/kg, iv administered every 2 days for 13 days; assay type: functional; conditions: A549, 312 h, time 13 day
[38] = test system: A549; assay: Anti-tumor activity against human A549 cells xenografted in BALB/c mouse assessed as reduction in tumor weight at 8 mg/kg, iv administered every 2 days for 13 days; assay type: functional; conditions: A549, 312 h, time 13 day
[39] = Toxicity in BALB/c mouse xenografted with human A549 cells assessed as body weight loss at 2 to 8 mg/kg, iv administered every 2 days for 13 days; assay type: organism-based; conditions: in vivo, 312 h, dose 2-8 mg/kg, time 13 day
[40] = test system: A549; assay: cells; conditions: Homo sapiens, A549, 96 h
Description: Cytotoxicity against human A549 cells assessed as inhibition of cell growth measured after 96 hrs by MTT assay

Stability [12]: Stable | IC50 [40]: 0.08 µM
Compound: CC1=C(O)C(=O)C=C2C1=CC=C1[C@@]2(C)CC[C@@]2(C)[C@@H]3C[C@](C)(C(=O)N4CCN(C(=O)CN5C(=O)S/C(=C\C6CC6)C5=O)CC4)CC[C@]3(C)CC[C@]12C
Activity [1]: 56% | Activity [2]: 60.2% | Activity [3]: 46.4% | Activity [4]: 42.3% | Activity [5]: 38.2% | Activity [6]: 6.96% | Activity [7]: 29.5% | Activity [8]: 3.73% | IC50 at 96 h [9]: 3.02 µM | selectivity ratio [10]: 37.8 | Ratio IC50 [11]: 13.8 | Activity [13]: Tde | Activity [14]: Dde | Activity [15]: Active | Activity [16]: Active | Activity [17]: Dde | viability at 0.125 µM [18]: 85.8% | Activity [19]: 1.9% | Activity [20]: 7.71% | Activity [21]: 4.59% | viability at 0.25 µM [22]: 71.8% | Activity [23]: 2.68% | Activity [24]: 19.6% | Activity [25]: 5.86% | viability at 0.5 µM [26]: 59.8% | Activity [27]: 51.7% | Activity [28]: Active | Activity [29]: Active | Activity [30]: Dde | Activity [31]: Dde | Activity [32]: Dde | Activity [33]: Active | Activity [34]: Dde | Activity [35]: Active | inhibition in vivo at 2 mg/kg [36]: 48.8% | inhibition in vivo at 4 mg/kg [37]: 64.4% | inhibition in vivo at 8 mg/kg [38]: 69.5% | Activity [39]: Non-Toxic
